Laboratory results from article PMC10149936, “Cofilin activation in pancreatic acinar cells plays a pivotal convergent role for mediating CCK-stimulated enzyme secretion and growth” (Frontiers in Physiology, 2023).

Tests used:
epithelial cells = details: ref Matsubayashi et al., 2004; cited from earlier work
[1] = test system: cofilin-1 in epithelial cells; details: micromolar concentrations, ref Zhang et al., 2018; cited from earlier work
Procedure: (Figures 11, 12) CCK-8 stimulates pancreatic growth in addition to being a physiological regulator of pancreatic enzyme secretion ([Jensen, 1994]; [Dufresne et al., 2006]) The activation of p44/42 MAPK by CCK-8 is an important signaling step in mediating its growth effects ([Dufresne et al., 2006]). Therefore, to study the possible role of cofilin in the activation of p44/42 MAPK in pancreatic acini, we examined the effect on cofilin activation of preincubation with two cofilin inhibitors (Cytochalasin D, Paclitaxel). (Figure 11) ([Shoji et al., 2012]; [Zhang et al., 2018]). The concentrations ...

[2] = test system: cofilin (pS3) in CCK1-R/Panc-1 cells; assay: cofilin activation (pS3 cofilin Western blot) in CCK1-R/Panc-1 cells; assay type: cell-based, human; details: CCK-8 0.3 and 100 nM, 5 min
Procedure: CCK1 receptor transfected Panc-1 (CCK1-R/Panc-1) cells ([Berna et al., 2009]) and AR42J cells, were cultured in DMEM supplemented with 10% FBS and 1% penicillin/streptomycin and in RPMI supplemented with 10% FBS and 1% penicillin/streptomycin, respectively; and split 1:10 weekly with trypsin/EDTA, after washing in PBS. Finally, cells were seeded in 6-well plate and serum starved overnight, until they were 80% confluent. Cells were incubated at 37°C in 5% CO2/95% air. AR42J cells were treated with 100 nM dexamethasone for 72°h, which stimulates their differentiation into exocrine cells ([Logsdon, 1986]).
Pancreatic acini preparations were obtained by collagenase digestion as previously described ([Bissonnette et al., 1984]; [Sato et al., 1989]; [Ramos-Alvarez and Jensen, 2018]). […] Isolated acini and CCK1-R/Panc-1 cells (M&M 2.2.1) were also preincubated with two SSH1 inhibitors, D3 (25 μM, 1 h) ([Li et al., 2015]) or SE (50 μM, 3 h for acini; 24 h for CCK1-R/Panc-1 cells) ([Lee et al., 2017]). […] After sonication, lysates were centrifuged at 10,000×g for 15 min at 4°C and protein concentration was measured using the Bio-Rad protein assay reagent. […]
Western blotting and immunoprecipitation were performed as described previously ([Ramos-Alvarez and Jensen, 2018]). […] The intensity of the protein bands was measured using GeneTools software from Syngene, which were assessed in the linear detection range. […]
FIGURE 3 Effect of two SSH1 inhibitors, D3 and SE (A–C), or SSH1 siRNA (D), on the ability of CCK-8 (0.3 and 100 nM) to activate LIMK and cofilin in pancreatic acini (A/B) and activate cofilin in CCK1-R/Panc-1 cells (C/D). […] Western blots were analyzed using anti-pS3 cofilin and anti-pT508 […], and the knockdown effect of SSH1 was confirmed by Western blots using SSH1 (C-term) antibody. Bands were visualized using chemiluminescence and quantified by densitometry. […] Results are expressed as % of basal stimulation of the control group. *, p < 0.05 compared to the control group; ∞, p < 0.05 compared to stimulants without inhibitors. […]

Molecule: C=C1[C@@H](C)[C@H]2[C@H](Cc3ccccc3)NC(=O)[C@]23[C@H](OC(C)=O)/C=C/[C@@](C)(O)C(=O)[C@@H](C)C/C=C/[C@H]3[C@@H]1O [Cytochalasin D]
- effect on cell migration (epithelial cells): completely blocked cell migration

Molecule: CC(=O)O[C@H]1C(=O)[C@@]2(C)[C@H]([C@H](OC(=O)c3ccccc3)[C@]3(O)C[C@H](OC(=O)[C@H](O)[C@@H](NC(=O)c4ccccc4)c4ccccc4)C(C)=C1C3(C)C)[C@]1(OC(C)=O)CO[C@@H]1C[C@@H]2O [Paclitaxel]
- effect on cofilin-1 expression levels [1]: significantly suppressed cofilin-1 expression levels

Molecule: COOH-terminal octapeptide of cholecystokinin [CCK-8]
- effect on cofilin phosphorylation in CCK1-R/Panc-1 cells [2]: caused rapidly dephosphorylation of cofilin
